Results as given in patent US5929063A, “Mercapto and seleno derivatives as inhibitors of nitric oxide synthase” (priority 1995, dated 1999).
Where two headings read alike, the source gives them in different places.

Legend:
[1] = test system: J774.2 macrophages; assay: Nitrite production in immunostimulated J774.2 macrophages (E.coli LPS + murine gamma-interferon, 24 h); type: cell-based, mouse
Description: This example illustrates the effect of selected mercapto and seleno derivatives on nitrite production in J774.2 immunostimulated macrophages. The J774.2 mouse macrophage cell line was obtained from the ATCC and was cultured in DMEM with 4×10^-3 M L-glutamine and 10% fetal calf serum. Cells were cultured in 96-well plates with 200 μl culture medium until they reached 60-80% confluence. To induce INOS, fresh culture medium containing E.coli LPS (10 μg/ml) and murine gamma-interferon (IFN)(50 U/ml) was added. Nitrite accumulation in the cell culture medium in the absence or presence of various inhibitors was measured after 24 hours. Nitrite production, an indicator of NO synthesis, was measured in the supernatant of J774.2 macrophages by the Greiss reaction as described in Example 1 above.
This Example illustrates the effect of selected seleno derivatives on endotoxin-induced nitrite formation in J774.2 macrophages. The mouse macrophage cell line J774.2 obtained from the ATCC was cultured in DMEM with 4×10^-3 M L-glutamine and 10% fetal calf serum. Cells were cultured in 96-well plates with 200 μl culture medium until they reached 60-80% confluence. To induce iNOS, fresh culture medium containing E.coli LPS (10 μg/ml) and murine gamma-interferon (IFN)(50 U/ml) were added. Nitrite accumulation in the cell culture medium in the absence or presence of various inhibitors was measured after 24 hours. There was no detectable nitrite production by the J774.2 macrophages in the absence of immunostimulation. However, in the presence of IFN and LPS, nitrite concentration of the medium increased to 17±2 μM in the absence of inhibitor.

[2] = test system: J774 macrophages; assay: Nitrite production by immunostimulated J774 macrophages (endotoxin 24 h, Griess); type: cell-based, mouse; conditions: Mus musculus, J774; endotoxin 10 μg/ml, 24 h (Table 1); read-out: EC50 for the inhibition of nitrite production by stimulated J774 macrophages
Description: (§1) This example illustrates the effect of selected mercapto derivatives on endotoxin-induced nitrite formation in J774.2 macrophages and on IL-1 gamma-interferon induced nitrite formation in cultured rat arctic smooth muscle cells. J774 macrophage cell lines were obtained from the American Type Culture Collection (ATCC) and were grown using standard methods in Dulbecco's Modified Eagle Medium (DMEM) supplemented with 10% fetal bovine serum, glutamine, penicillin (10,000 U/l) and streptomycin (10,000 U/l). Rat aortic smooth muscle cells (RASM) from Wistar rats were isolated by enzymatic dissociation using standard methods. The cells were positively identified as smooth muscle by indirect immunofluorescent staining for a-actin, using mouse anti-α-actin antibody and anti-mouse IgG fluorescein isothiocyanate (FITC) conjugate. RASM cells were grown in T-75 tissue culture flasks in 50% F12 nutrient medium and 50% Dulbecco's Modified Eagle Medium supplemented with 10% fetal bovine serum, glutamine, penicillin (10,000 U/l) and streptomycin (10,000 U/l). Cells were grown in 96-well plates for measure of nitrite production and cell viability. J774 macrophages were treated with endotoxin (10 μg/ml) for 24 hours; smooth muscle cells were treated with IL-1 (100 U/ml) and gamma-interferon (50 U/ml) for 48 hours.
Concentration of nitrite, the degradation product of NO in the culture medium, was determined by mixing equal volumes of medium with the Griess reagent (1% sulfanilamide/0.1% naphthylethylenediamine dihydrochloride/2.5% H3 PO4). The mixture was incubated for 10 minutes at room temperature to form the chromophore, then optical densities (OD) were determined at 550 nm (OD550). NaNO2 was used as the standard. Spectrophotometric measurements were performed in a dual-wavelength spectrophotometer.

[3] = target: T1, ecNOS (Bos taurus, UniProt P29473); assay: ecNOS activity from intimal scrapings of fresh bovine aortae (conversion of [3H]-L-arginine to [3H]-L-citrulline); type: biochemical; conditions: for EC50: ecNOS (Table 2), read-out: EC50 for inhibition of ecNOS activity in tissue homogenates
T1 construct: the intimal surface of fresh bovine aortae was scraped and homogenized; from tissue; host or cells: homogenate of intimal scrapings of fresh bovine aortae
Description: The intimal surface of fresh bovine aortae was scraped in the presence of homogenation buffer composed of 50 mM Tris-HCl, 0.1 mM ethylenediamine tetraacetic acid (EDTA) and 0.1 mM ethyleneglycol bis (beta-aminoethyl ether) (EGTA). Conversion of [^3 H]-L-arginine to [^3 H]-L-citrulline was measured in the homogenates as follows: cell homogenate (50 μl) was incubated in the presence of [^3 H]-L-arginine (10 μM, 5 kBq/tube), NADPH (2 mM), calmodulin (30 nM), tetrahydrobiopterin (5 μM) and calcium (2 mM) for 20 minutes at 37° C. in N-2-hydroxethyl piperazine-N-2-ethane sulfonic acid (HEPES) buffer (pH 7.5). Reactions were stopped by dilution with 1 ml of ice cold HEPES buffer (pH 5.5) containing EGTA (2 mM) and EDTA (2 mM). Reaction mixtures were applied to Dowex 50W (Na^+ form) columns and the eluted [^3 H]-L-citrulline activity was measured by scintillation counting. bNOS activity was measured using similar methods in homogenates of whole rat brains.
For a preparation rich in ecNOS, the intimal surface of fresh bovine aortae was scraped and homogenized. The homogenization buffer was composed of 50 mM tris-HCL, 0.1 mM EDTA, 0.1 mM EGTA and 1 mM phenylmethylsulfonyl chloride (pH 7.4). Cell suspensions were homogenized in the homogenization buffer on ice using a Tissue Tearor 985-370 homogenizer (BioSpec Products, Racine, Wis.). Conversion of [^3 H]-L-arginine to [^3 H]-L-citrulline was measured in the homogenates as described in Example 3 above.

[4] = target: T2, bNOS (Rattus norvegicus, UniProt P29476); assay: bNOS activity in homogenates of whole rat brains; type: biochemical
T2 construct: bNOS activity was measured using similar methods in homogenates of whole rat brains; from tissue; host or cells: homogenate of whole rat brains

[5] = target: T3, iNOS (Rattus norvegicus, UniProt Q06518); assay: Inhibition of iNOS activity in tissue homogenates (Table 2); type: biochemical; parameters: bNOS in tissue homogenates; from tissue; host or cells: tissue homogenate; conditions: iNOS (Table 2)
[6] = target: T3, iNOS; assay: iNOS activity in lung homogenates from rats treated with bacterial endotoxin; type: biochemical; parameters: Lungs were obtained from rats which had been treated with bacterial endotoxin; from tissue; host or cells: lung homogenate from endotoxin-treated rats
Description: This Example illustrates the effect of selected mercapto and seleno derivatives on iNOS activity in lung homogenates prepared from rats treated with endotoxin. […] The homogenization buffer was composed of 50 mM tris-HCL, 0.1 mM EDTA, 0.1 mM EGTA and 1 mM phenylmethylsulfonyl chloride (pH 7.4). Cell suspensions were homogenized in the homogenization buffer on ice using a Tissue Tearor 985-370 homogenizer (BioSpec Products, Racine, Wis.).

[7] = test system: J774 macrophages; assay: Mitochondrial respiration (MTT reduction), cell viability of immunostimulated J774 macrophages; type: cell-based, mouse
Description: as §1
Mitochondrial respiration, an indicator of cell viability, was assessed by the mitochondrial-dependent reduction of MTT [3-(4,5-dimethylthiazol-2-yl)-2,5-diphenyltetrazolium bromide] to formazan. Cells in 96-well plates were incubated (37° C.) with MTT (0.2 mg/ml for 60 minutes). Culture medium was removed by aspiration and the cells solubilized in dimethylsulfoxide (DMSO) (100 μl). The extent of reduction of MTT to formazan within cells was quantitated by measurement of OD550 using a microplate reader. The calibration curve for the reduction of MTT to formazan was prepared in DMSO. Formazan production by cells was expressed as a percentage of the values obtained from untreated cells.

[8] = Mus musculus, J774.2, 24 h, read-out: NITRITE (% OF CONTROL)

T2 sequence (P29476 whole entry): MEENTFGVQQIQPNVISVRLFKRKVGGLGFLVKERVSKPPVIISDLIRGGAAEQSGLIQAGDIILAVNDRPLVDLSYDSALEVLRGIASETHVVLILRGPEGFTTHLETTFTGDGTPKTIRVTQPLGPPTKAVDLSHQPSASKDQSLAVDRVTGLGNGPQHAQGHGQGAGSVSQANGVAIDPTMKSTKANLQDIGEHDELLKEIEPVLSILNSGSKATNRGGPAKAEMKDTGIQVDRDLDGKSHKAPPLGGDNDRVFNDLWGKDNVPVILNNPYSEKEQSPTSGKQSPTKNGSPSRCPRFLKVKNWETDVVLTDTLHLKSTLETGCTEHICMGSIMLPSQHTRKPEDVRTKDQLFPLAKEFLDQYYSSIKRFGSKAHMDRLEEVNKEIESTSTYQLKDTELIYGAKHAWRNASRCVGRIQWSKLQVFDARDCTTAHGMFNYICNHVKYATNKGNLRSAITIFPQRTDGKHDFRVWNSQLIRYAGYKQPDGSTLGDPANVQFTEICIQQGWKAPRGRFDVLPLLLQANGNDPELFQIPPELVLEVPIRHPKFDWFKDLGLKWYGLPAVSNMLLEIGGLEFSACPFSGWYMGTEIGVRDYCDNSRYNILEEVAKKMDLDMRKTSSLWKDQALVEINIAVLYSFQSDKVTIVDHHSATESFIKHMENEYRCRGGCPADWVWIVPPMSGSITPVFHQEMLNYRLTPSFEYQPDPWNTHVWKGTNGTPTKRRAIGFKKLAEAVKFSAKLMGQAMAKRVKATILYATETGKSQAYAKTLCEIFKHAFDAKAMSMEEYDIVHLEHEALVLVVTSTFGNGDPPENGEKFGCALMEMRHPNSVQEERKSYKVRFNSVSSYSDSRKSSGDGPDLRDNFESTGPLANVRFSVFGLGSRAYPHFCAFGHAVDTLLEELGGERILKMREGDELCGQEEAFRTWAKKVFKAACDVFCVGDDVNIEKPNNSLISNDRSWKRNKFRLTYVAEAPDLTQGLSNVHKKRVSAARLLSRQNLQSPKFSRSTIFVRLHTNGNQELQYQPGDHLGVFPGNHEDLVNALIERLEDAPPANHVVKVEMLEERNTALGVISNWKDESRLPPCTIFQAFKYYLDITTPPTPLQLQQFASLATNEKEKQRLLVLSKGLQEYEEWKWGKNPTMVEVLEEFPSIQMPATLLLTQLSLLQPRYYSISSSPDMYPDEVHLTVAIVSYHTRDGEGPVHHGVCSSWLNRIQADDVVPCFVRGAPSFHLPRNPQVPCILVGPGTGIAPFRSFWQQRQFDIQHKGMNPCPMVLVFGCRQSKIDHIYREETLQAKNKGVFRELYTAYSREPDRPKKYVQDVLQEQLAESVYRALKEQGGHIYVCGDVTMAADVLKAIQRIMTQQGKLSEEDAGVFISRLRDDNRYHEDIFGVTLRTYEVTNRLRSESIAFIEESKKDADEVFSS

With `NC1=NCC[Se]1` [ASZ, 2-aminoselenazoline] the “inhibition of nitrite production, in words” value ([1]; IFN and LPS) was “dose-dependently inhibited nitrite production”, the activity at 1 µM [1, 8] was 100% and the activity at 3.16 µM [1, 8] was 96%. The activity at 10 µM [1, 8] was 60%, the activity at 31.6 µM [1, 8] was 37% and the activity at 100 µM [1, 8] was 14%.
`N=C(N)NCCSSCCNC(=N)N` [GED, guanidinoethyldisulfide] was tested, and the EC50 [2] was 1 µM, the “inhibition of ecNOS activity, in words” value [3] was “inhibited ecNOS activity less strongly than the L-NMA” and the EC50 [3] was 630 µM. For the same molecule, the EC50 [4] was 180 µM, the “inhibition of nitrite production, in words” value ([1]; IFN and LPS) was “dose-dependent inhibition of nitrite production” and the “potency relative to reference compound L-NMA” value ([1]; IFN and LPS) was “higher than the reference compound L-NMA”. For the same molecule, the activity at 1000 µM ([1]; Mus musculus, J774.2, 24 h, inhibitor concentration -3.000 log M (Table 3), read-out: NITRITE (% OF CONTROL)) was 0%, the activity at 100 µM ([1]; Mus musculus, J774.2, 24 h, inhibitor concentration -4.000 log M (Table 3), read-out: NITRITE (% OF CONTROL)) was 0% and the activity at 10 µM ([1]; Mus musculus, J774.2, 24 h, inhibitor concentration -5.000 log M (Table 3), read-out: NITRITE (% OF CONTROL)) was 7%. The activity at 1 µM ([1]; Mus musculus, J774.2, 24 h, inhibitor concentration -6.000 log M (Table 3), read-out: NITRITE (% OF CONTROL)) was 36%, the EC50 ([1]; Mus musculus, J774.2, IFN and LPS, Example 9, read-out: EC50, inhibition of nitrite production) was 0.3 µM and the EC50 [5] was 200 µM. For the same molecule, the EC50 ([6]; comparing Tables 4 and 5, read-out: EC50 on iNOS) was 200 µM, the “selectivity for iNOS” value ([6]; iNOS vs ecNOS EC50 values) was “relative selectivity of SEG and GED for iNOS” and the “iNOS ACTIVITY (%)” value ([6]; inhibitor concentration -3.000 log M) was 22.000%. The “iNOS ACTIVITY (%)” value ([6]; inhibitor concentration -4.000 log M) was 57.000%, the “iNOS ACTIVITY (%)” value ([6]; inhibitor concentration -5.000 log M) was 100.000% and the “iNOS ACTIVITY (%)” value ([6]; inhibitor concentration -6.000 log M) was 100.000%. The “iNOS ACTIVITY (%)” value ([6]; inhibitor concentration -7.000 log M) was 100.000% and the “inhibition of iNOS activity, in words” value ([6]; lung homogenates, rats treated with endotoxin) was “somewhat similar in their inhibitory effect on INOS activity”.
Molecule `N=C(NCCC[C@H](N)C(=O)O)N[N+](=O)[O-]` [L-NA, N^G -Nitro-L-arginine, reference compound] has an EC50 [2] of roughly 1000 µM and an EC50 [5] of 300 µM.
`N=C(N)NCCS` [MEG, mercaptoethylguanidine] was tested, and the EC50 [2] was 13 µM, the cellular viability ([7]; 1 mM) was “a slight reduction in viability was observed” and the cellular viability ([7]; effective doses 1-100 μM) was “did not decrease cellular viability”. The EC50 [3] was 110 µM, the EC50 [4] was 60 µM and the EC50 [5] was 11.5 µM.
